Assay results published in the supplement of paper PMC10307832.

Experiments:
Assay in all cases: relative viability (nuclei count vs DMSO), 5 days (fraction); higher = more cells survive
[1] = compound: C1=CC2=NC=CN=C2C=C1/C=C/3\C(=O)NC(=O)S3 + CC(C)C[C@H](NC(=O)[C@H](Cc1ccccc1)NC(=O)c1cnccn1)B(O)O [Bortezomib] (partner 0.002 µM)
How it was run: (§1)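 Lung cancer cell lines in 1536-well plates got either a single drug or a fixed anchor-drug dose together with five library-drug doses (not always all listed) in √10 steps, by pin tool, on the day after seeding. Nuclei were counted after 5 days, and relative viability is the treated-to-vehicle ratio of nuclei counts. Values are medians of duplicate plates.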

[2] = compound: C1=CC2=NC=CN=C2C=C1/C=C/3\C(=O)NC(=O)S3 + C[C@]1(O)C[C@@H](c2nc(-c3ccc4ccc(-c5ccccc5)nc4c3)c3c(N)nccn32)C1 [Linsitinib] (partner 1 µM)
How it was run: as §1

BGJ398 + Palbociclib = compound: CCN1CCN(c2ccc(Nc3cc(N(C)C(=O)Nc4c(Cl)c(OC)cc(OC)c4Cl)ncn3)cc2)CC1 [BGJ398] + CC(=O)c1c(C)c2cnc(Nc3ccc(N4CCNCC4)cn3)nc2n(C2CCCC2)c1=O [Palbociclib] (partner 0.5 µM)
How it was run: as §1

BGJ398 + Dasatinib = compound: CCN1CCN(c2ccc(Nc3cc(N(C)C(=O)Nc4c(Cl)c(OC)cc(OC)c4Cl)ncn3)cc2)CC1 [BGJ398] + Cc1nc(Nc2ncc(C(=O)Nc3c(C)cccc3Cl)s2)cc(N2CCN(CCO)CC2)n1 [Dasatinib] (partner 0.075 µM)
How it was run: as §1

Cell Line | relative viability ([1]; first compound 0.02 µM) | relative viability ([1]; first compound 0.06325 µM) | relative viability ([1]; first compound 0.2 µM) | relative viability ([1]; first compound 0.6325 µM) | relative viability ([1]; first compound 2 µM) | relative viability ([2]; first compound 0.02 µM) | relative viability ([2]; first compound 0.06325 µM) | relative viability ([2]; first compound 0.2 µM) | relative viability ([2]; first compound 0.6325 µM) | relative viability ([2]; first compound 2 µM) | relative viability (BGJ398 + Palbociclib; first compound 0.01 µM) | relative viability (BGJ398 + Palbociclib; first compound 0.03162 µM) | relative viability (BGJ398 + Palbociclib; first compound 0.1 µM) | relative viability (BGJ398 + Palbociclib; first compound 0.3162 µM) | relative viability (BGJ398 + Palbociclib; first compound 1 µM) | relative viability (BGJ398 + Dasatinib; first compound 0.01 µM) | relative viability (BGJ398 + Dasatinib; first compound 0.03162 µM) | relative viability (BGJ398 + Dasatinib; first compound 0.1 µM) | relative viability (BGJ398 + Dasatinib; first compound 0.3162 µM) | relative viability (BGJ398 + Dasatinib; first compound 1 µM)
HCC-366 | 1 | 1.02 | 1.05 | 1.06 | 1.01 | 0.636 | 0.832 | 0.734 | 0.501 | 0.638 | 0.435 | 0.415 | 0.422 | 0.388 | 0.476 | 0.626 | 0.681 | 0.793 | 0.6 | 0.558
HCC-827 | 0.981 | 0.912 | 1 | 1.05 | 0.973 | 0.944 | 0.928 | 1 | 0.935 | 0.884 | 0.26 |  | 0.469 | 0.45 | 0.518 | 0.223 | 0.123 | 0.329 | 0.249 | 0.325
HOP-62 | 0.908 | 0.819 | 1.07 | 0.757 | 0.707 | 1.04 | 0.982 | 1.1 | 1.01 | 1.06 | 0.464 | 0.509 | 0.537 | 0.473 | 0.492 | 0.745 | 0.656 | 0.678 | 0.733 | 0.57
LC-2-ad | 0.964 | 1.02 | 1.09 | 0.943 | 0.829 | 0.76 | 0.885 | 0.784 | 0.726 | 0.854 | 0.477 | 0.516 | 0.5 | 0.524 | 0.499 | 0.572 | 0.756 | 0.566 | 0.538 | 0.433
LCLC-97TM1 | 0.624 | 0.515 | 0.573 | 0.776 | 0.125 | 0.23 | 0.188 | 0.203 | 0.162 | 0.145 | 0.177 | 0.221 | 0.262 | 0.197 | 0.267 | 0.671 | 0.92 | 0.773 | 0.646 | 0.921
LCLC-103H | 1.08 | 1.05 | 1.06 | 1 | 0.931 | 1.05 | 0.799 | 1.03 | 0.976 | 1.08 | 0.42 | 0.497 | 0.457 | 0.478 | 0.518 | 0.471 | 0.446 | 0.447 | 0.487 | 0.381
LOU-NH91 | 0.415 | 0.517 | 0.512 | 0.562 | 0.513 | 0.982 | 1.01 | 0.928 | 0.954 | 0.97 | 0.555 | 0.544 | 0.553 | 0.559 | 0.536 | 0.522 |  | 0.59 | 0.459 | 0.522
LU99A | 1.09 | 1.32 | 1.41 | 1.07 | 0.747 | 0.597 | 0.559 | 0.561 | 0.5 | 0.475 | 0.426 | 0.442 | 0.438 | 0.392 | 0.364 | 0.569 | 0.487 | 0.518 | 0.321 | 0.409
LXF-289 | 0.977 | 0.985 | 1.05 | 0.941 | 1.02 | 0.928 | 0.921 | 0.993 | 0.941 | 0.933 | 0.584 | 0.549 | 0.564 | 0.531 | 0.552 | 0.194 | 0.218 | 0.184 | 0.254 | 0.156
NCI-H23 | 0.954 | 1.37 | 1.27 | 0.843 | 0.678 | 0.575 | 0.649 | 0.717 | 0.588 | 0.603 | 0.471 | 0.601 | 0.591 | 0.471 | 0.475 | 0.776 | 0.834 | 0.844 | 0.792 | 0.748
NCI-H322M | 1.18 | 1.1 | 1.26 | 1.19 | 0.973 | 1.06 | 0.85 | 0.982 | 0.896 | 0.918 | 0.493 | 0.43 | 0.472 | 0.491 | 0.521 | 0.268 | 0.227 | 0.227 | 0.262 | 0.236
NCI-H441 | 0.272 | 0.289 |  | 0.403 | 0.494 | 0.473 | 0.399 | 0.653 | 0.57 | 0.508 |  | 0.186 | 0.213 | 0.25 | 0.183 | 0.577 | 0.83 | 0.542 | 0.672 | 0.607
NCI-H460 | 1.01 | 1.05 | 1.03 | 0.932 | 0.942 | 0.718 | 1.32 | 0.787 | 0.687 | 0.872 | 0.209 | 0.169 | 0.118 | 0.206 | 0.0801 | 0.479 | 0.523 | 0.46 | 0.522 | 0.498
NCI-H520 | 0.793 | 0.632 | 0.538 | 0.489 | 0.657 | 0.931 | 1.15 | 1.11 | 0.969 | 1.03 | 0.216 | 0.19 | 0.147 | 0.142 | 0.161 | 0.138 | 0.177 | 0.138 | 0.142 | 0.146
